From publication PMC7187754, “Identification of the Molecular Determinants Involved in Antimicrobial Activity of Pseudodesmin A, a Cyclic Lipopeptide From the Viscosin Group” (Frontiers in Microbiology, 2020)
Read-outs that look alike come from different tables or passages of the source.

How the values were obtained:
[1] = fluorescence permeability assays, model membranes, natural compounds; ref Geudens et al., 2017; cited from earlier work
From the text: We have previously reported the three-dimensional structure of the 2 neutral subgroup representatives, viscosinamide A (D^0) ([Geudens et al., 2014]) and pseudodesmin A (L^0) ([Sinnaeve et al., 2009a], [b]), while that of anionic WLIP (D^–) was already available from literature ([Han et al., 1992]). To avoid ambiguity, the three-dimensional structure is referred to hereafter as the ‘fold’ of a Ps-CLiP whereas the chemical (covalent) structure will simply be referred to as ‘structure’ as indicated in Figure 1C. In spite of the D/L switch in stereochemistry for Leu5, all have identical backbone ...

[2] = system: Enterococcus faecalis LMG 8222; test: Broth microdilution antimicrobial assay (MIC1/2); format: cell-based
[3] = system: Enterococcus faecium LMG 9431; test: Broth microdilution antimicrobial assay (MIC1/2); format: cell-based
[4] = system: Streptococcus pyogenes LMG 15868; test: Broth microdilution antimicrobial assay (MIC1/2); format: cell-based
[5] = system: Clostridium perfringens NCTC 8798; format: cell-based
[6] = system: Streptococcus pneumoniae LMG 21598; test: Broth microdilution antimicrobial assay (MIC1/2); format: cell-based
[7] = system: Staphylococcus aureus LMG 10147; test: Broth microdilution antimicrobial assay (MIC1/2); format: cell-based
[8] = RP-HPLC retention time as measure of overall hydrophobicity; format: physicochemical; conditions: chromatographic, RP-HPLC (LC-MS system: Kinetex C18, 150 mm × 4.60 mm, 5 μm, 1.5 ml/min; gradient not stated at this place)
Experimental: Chemicals and general procedures are listed in the Supplementary Materials section. All procedures for the synthesis and purification of specific building blocks as well as solid-phase peptide synthesis, and cyclization release of the PsdA-analogs were carried out as described previously for the total synthesis of pseudodesmin A (1) and its enantiomer (2) ([De Vleeschouwer et al., 2014]). Practical details and relevant variations of the procedures for specific cases are collected in the Supplementary Materials section of this paper, together with full characterization of all fatty acid building blocks and analogs. The crude cyclic lipopeptides were purified using either semi-preparative or preparative RP-HPLC. Semi-preparative purification was performed on an Agilent 1100 series instrument using a Kromasil column (C18, 250 mm × 7.8 mm, 5 μm particle size). The analyses were executed with a flow rate of 3 ml/min and with the following solvent systems: H2O containing 0.1% HCOOH (A) and CH3CN (B). […] High-resolution mass spectra were recorded on an Agilent 6220A time-of-flight mass spectrometer, equipped with an Agilent ESI/APCI multimode source. […]

[9] = minimal concentration inhibiting growth by at least 50% vs untreated control, broth microdilution (CLSI), 0.016-32 μg/ml twofold dilutions, ~5 × 10^5 CFU/ml, 37°C, 24 h, OD 590 nm
[10] = minimal concentration inhibiting growth by at least 50% vs untreated control, broth microdilution (CLSI), Reinforced Clostridial Medium, 0.016-32 μg/ml twofold dilutions, ~5 × 10^5 CFU/ml, 37°C, 24 h, OD 590 nm

| Compound | C1/2 of membrane permeabilization [1] [µM] | MIC1/2 E. faecalis LMG 8222 [2, 9] [µg/mL] | MIC1/2 E. faecium LMG 9431 [3, 9] [µg/mL] | MIC1/2 S. pyogenes LMG 15868 [4, 9] [µg/mL] | MIC1/2 C. perfringens NCTC 8798 [5, 10] [µg/mL] | MIC1/2 S. pneumoniae LMG 21598 [6, 9] [µg/mL] | MIC1/2 S. aureus LMG 10147 [7] [µg/mL] | MIC1/2 E. faecalis LMG 8222 [2] [µg/mL] | MIC1/2 E. faecium LMG 9431 [3] [µg/mL] | MIC1/2 S. pyogenes LMG 15868 [4] [µg/mL] | MIC1/2 C. perfringens NCTC 8798 [5] [µg/mL] | MIC1/2 S. pneumoniae LMG 21598 [6] [µg/mL] | HPLC retention time (overall hydrophobicity) [8] [min] | MIC1/2 S. aureus LMG 10147 [7, 9] [µg/mL] |
| --- | --- | --- | --- | --- | --- | --- | --- | --- | --- | --- | --- | --- | --- | --- |
| viscosin | ~4.9 |  |  |  |  |  |  |  |  |  |  |  |  |  |
| Daptomycin |  | >32 | 16 | 2 | 8 | 4 |  |  |  |  |  |  |  |  |
| CN[C@H](CC(C)C)C(=O)N[C@H]1C(=O)N[C@@H](CC(N)=O)C(=O)N[C@H]2C(=O)N[C@H]3C(=O)N[C@H](C(=O)N[C@H](C(=O)O)c4cc(O)cc(O)c4-c4cc3ccc4O)[C@H](O)c3ccc(c(Cl)c3)Oc3cc2cc(c3O[C@@H]2O[C@H](CO)[C@@H](O)[C@H](O)[C@H]2O[C@H]2C[C@](C)(N)[C@H](O)[C@H](C)O2)Oc2ccc(cc2Cl)[C@H]1O [Vancomycin] |  |  |  |  |  |  | 2 | 4 | 1 | 0.5 | 0.25 | 0.25 |  |  |
| Pseudodesmin A [compound 1] | ~3.7 | 4 | 4 | 1 | 2 | 2 |  |  |  |  |  |  | 7.4 | 4 |
